Among the data in US10722501B2 (BAYER AKTIENGESELLSCHAFT, priority 2016, dated 2020) are IC50 values, retold here.

As usually defined, the IC50 is the concentration needed to halve the response being measured.

This assay concerns the target T1, recombinant full-length human prolyl endopeptidase (PREP) (Homo sapiens, UniProt P48147).
T1 construct: To recombinant full-length human prolyl endopeptidase (PREP, R&D-Systems, 4308-SE); purchased R&D-Systems 4308-SE
T1 sequence (P48147 1-710): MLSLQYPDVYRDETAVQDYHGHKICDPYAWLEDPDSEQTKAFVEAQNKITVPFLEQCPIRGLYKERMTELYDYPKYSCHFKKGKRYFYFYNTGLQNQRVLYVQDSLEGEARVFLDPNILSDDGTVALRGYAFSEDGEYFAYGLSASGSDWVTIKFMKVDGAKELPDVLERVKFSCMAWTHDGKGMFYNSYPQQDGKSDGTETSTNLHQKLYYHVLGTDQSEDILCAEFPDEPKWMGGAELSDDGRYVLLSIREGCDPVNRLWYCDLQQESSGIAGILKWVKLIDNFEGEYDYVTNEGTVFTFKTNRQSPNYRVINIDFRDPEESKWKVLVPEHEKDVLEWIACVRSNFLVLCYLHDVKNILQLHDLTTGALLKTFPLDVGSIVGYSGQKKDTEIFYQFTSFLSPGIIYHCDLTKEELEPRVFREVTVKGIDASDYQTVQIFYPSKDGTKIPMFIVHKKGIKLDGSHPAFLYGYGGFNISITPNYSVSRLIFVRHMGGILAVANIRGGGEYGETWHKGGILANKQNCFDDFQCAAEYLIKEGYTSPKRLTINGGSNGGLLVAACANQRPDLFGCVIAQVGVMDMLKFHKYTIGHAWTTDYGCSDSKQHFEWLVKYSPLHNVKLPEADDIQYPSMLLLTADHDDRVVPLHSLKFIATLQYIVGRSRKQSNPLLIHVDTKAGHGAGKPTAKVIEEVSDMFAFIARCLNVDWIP
The experiment in a line: Biochemical human prolyl endopeptidase (PREP) assay with fluorescently labelled substrate. Particulars: substrate Z-Gly-Pro-AMC 50 μM, 32° C., 60 min; some as mean values from multiple independent determinations. Summed up: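 0.4 nM (final, example) recombinant PREP in pH 7.5 Tris buffer with EDTA, GSH, BSA and Brij-35; compounds at 1 nM to 30 μM. Reaction started with 50 μM Z-Gly-Pro-AMC and followed by fluorescence (ex 360/em 465 nm) at 32° C for 60 min. IC50 interpolated from percent activity based on initial slopes.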
Consider `COc1ccc(Cn2nc3n(c2=O)[C@H](C(=O)N2CCC(F)(F)C2)CCC3)nc1` [Example 381, (5S)-5-[(3,3-Difluoropyrrolidin-1-yl)carbonyl]-2-[(5-methoxypyridin-2-yl)methyl]-5,6,7,8-tetrahydro[1,2,4]triazolo[4,3-a]pyridin-3(2H)-one], for which the half-inhibitory concentration (IC50) is 5.5 nM. For `O=C(C1CCCc2nn(Cc3ccc(Cl)s3)c(=O)n21)N1CCC(F)(F)C1` (racemic) [Example 54, (5RS)-2-[(5-Chloro-2-thienyl)methyl]-5-[(3,3-difluoropyrrolidin-1-yl)carbonyl]-5,6,7,8-tetrahydro[1,2,4]triazolo[4,3-a]pyridin-3(2H)-one], the IC50 amounted to 1.3 nM. With `O=C(C1C(C(F)(F)F)CCc2nn(Cc3ccc(C(F)(F)F)nc3)c(=O)n21)N1CC[C@H](F)C1` (mixture of isomers) [Example 284, (5RS,6RS)-5-{[(3S)-3-Fluoropyrrolidin-1-yl]carbonyl}-6-(trifluoromethyl)-2-{[6-(trifluoromethyl)pyridin-3-yl]methyl}-5,6,7,8-tetrahydro[1,2,4]triazolo[4,3-a]pyridin-3(2H)-one] the figure was 3 nM. Turning to `O=C([C@@H]1CCCc2nn(Cc3ccc(Cl)cn3)c(=O)n21)N1CC[C@H](F)C1` [Example 508, (5S)-2-[(5-Chloropyridin-2-yl)methyl]-5-{[(3S)-3-fluoropyrrolidin-1-yl]carbonyl}-5,6,7,8-tetrahydro[1,2,4]triazolo[4,3-a]pyridin-3(2H)-one], the IC50 is 0.91 nM. The same measure for `CC1CCC(C(=O)N2CCC(F)(F)C2)n2c1nn(Cc1ccc(C(F)(F)F)nc1)c2=O` (racemic) [Example 330, (5RS,8RS)-5-[(3,3-Difluoropyrrolidin-1-yl)carbonyl]-8-methyl-2-{[6-(trifluoromethyl)pyridin-3-yl]methyl}-5,6,7,8-tetrahydro[1,2,4]triazolo[4,3-a]pyridin-3(2H)-one]: 4.9 nM; for `O=C([C@@H]1CCCc2nn(Cc3ncc(F)cc3F)c(=O)n21)N1C[C@@H](F)[C@@H](F)C1` [Example 411, (5S)-2-[(3,5-Difluoropyridin-2-yl)methyl]-5-{[(3R,4S)-3,4-difluoropyrrolidin-1-yl]carbonyl}-5,6,7,8-tetrahydro[1,2,4]triazolo[4,3-a]pyridin-3(2H)-one]: 2.5 nM; for `O=C([C@@H]1CCCc2nn(Cc3ncc(Cl)cc3F)c(=O)n21)N1CC[C@H](F)C1` [Example 568, (5S)-2-[(5-Chloro-3-fluoropyridin-2-yl)methyl]-5-{[(3S)-3-fluoropyrrolidin-1-yl]carbonyl}-5,6,7,8-tetrahydro[1,2,4]triazolo[4,3-a]pyridin-3(2H)-one]: 0.62 nM.

For `COc1ccc(C2(Cn3nc4n(c3=O)[C@H](C(=O)N3CC(F)C3)CCC4)CC2)cc1` [Example 357, (5S)-5-[(3-Fluoroazetidin-1-yl)carbonyl]-2-{[1-(4-methoxyphenyl)cyclopropyl]methyl}-5,6,7,8-tetrahydro[1,2,4]triazolo[4,3-a]pyridin-3(2H)-one], the IC50 was found to be 0.43 nM. The same measure for `O=C(C1CCCc2nn(Cc3ccc(OC(F)(F)F)c(F)c3)c(=O)n21)N1CCCC1` (racemic) [Example 67, (5RS)-2-[3-Fluoro-4-(trifluoromethoxy)benzyl]-5-(pyrrolidin-1-ylcarbonyl)-5,6,7,8-tetrahydro[1,2,4]triazolo[4,3-a]pyridin-3(2H)-one]: 8.7 nM; for `Cc1ccc(Cn2nc3n(c2=O)C(C(=O)N2CCCC2)C(C)CC3)cc1` (single isomer, unassigned) [Example 139, (5RS,6RS)-6-Methyl-2-(4-methylbenzyl)-5-(pyrrolidin-1-ylcarbonyl)-5,6,7,8-tetrahydro[1,2,4]triazolo[4,3-a]pyridin-3(2H)-one]: 0.87 nM. With `O=C(C1CCCc2nn(Cc3ccc(OC(F)(F)F)c(Cl)c3)c(=O)n21)N1CCCC1` (racemic) [Example 73, (5RS)-2-[3-Chloro-4-(trifluoromethoxy)benzyl]-5-(pyrrolidin-1-ylcarbonyl)-5,6,7,8-tetrahydro[1,2,4]triazolo[4,3-a]pyridin-3(2H)-one] the figure was 1.5 nM.

In the case of `O=C([C@@H]1CCCc2nn(Cc3cc(F)c(F)cc3F)c(=O)n21)N1CCC(F)(F)C1` [Example 490, (5S)-5-[(3,3-Difluoropyrrolidin-1-yl)carbonyl]-2-(2,4,5-trifluorobenzyl)-5,6,7,8-tetrahydro[1,2,4]triazolo[4,3-a]pyridin-3(2H)-one], the IC50 came out at 0.38 nM.

As to `Cc1ccc(Cn2nc3n(c2=O)C(C(=O)N2CCCCC2)CCC3)cc1` (racemic) [Example 161, (5RS)-2-(4-Methylbenzyl)-5-(piperidin-1-ylcarbonyl)-5,6,7,8-tetrahydro[1,2,4]triazolo[4,3-a]pyridin-3(2H)-one], the IC50 is 37 nM. The same measure for `Cc1ccc(Cn2nc3n(c2=O)C(C(=O)N2CC(F)(F)C2)CCC3)cc1` (racemic) [Example 114, (5RS)-5-[(3,3-Difluoroazetidin-1-yl)carbonyl]-2-(4-methylbenzyl)-5,6,7,8-tetrahydro[1,2,4]triazolo[4,3-a]pyridin-3(2H)-one]: 1.95 nM; for `O=C([C@@H]1CCCc2nn(Cc3nnc(C(F)(F)F)o3)c(=O)n21)N1CC[C@H](F)C1` [Example 544, (5S)-5-{[(3S)-3-Fluoropyrrolidin-1-yl]carbonyl}-2-{[5-(trifluoromethyl)-1,3,4-oxadiazol-2-yl]methyl}-5,6,7,8-tetrahydro[1,2,4]triazolo[4,3-a]pyridin-3(2H)-one]: 4.4 nM. With `O=C([C@@H]1CCCc2nn(Cc3ccc(F)c(C(F)(F)F)c3)c(=O)n21)N1CC[C@H](F)C1` [Example 448, (5S)-5-{[(3S)-3-Fluoropyrrolidin-1-yl]carbonyl}-2-[4-fluoro-3-(trifluoromethyl)benzyl]-5,6,7,8-tetrahydro[1,2,4]triazolo[4,3-a]pyridin-3(2H)-one] the figure was 0.615 nM; with `COc1ccc(CCn2nc3n(c2=O)[C@H](C(=O)N2C[C@@H](F)[C@@H](F)C2)CCC3)cc1` [Example 522, (5S)-5-{[(3R,4S)-3,4-Difluoropyrrolidin-1-yl]carbonyl}-2-[2-(4-methoxyphenyl)ethyl]-5,6,7,8-tetrahydro[1,2,4]triazolo[4,3-a]pyridin-3(2H)-one], 1.5 nM. In the case of `O=C(C1CCCc2nn(Cc3ccc(Cl)c(Cl)c3)c(=O)n21)N1CCCC1` (racemic) [Example 39, (5RS)-2-(3,4-Dichlorobenzyl)-5-(pyrrolidin-1-ylcarbonyl)-5,6,7,8-tetrahydro[1,2,4]triazolo[4,3-a]pyridin-3(2H)-one], the 50% inhibitory concentration (IC50) was 0.55 nM.

As for `O=C(C1CC(C(F)(F)F)Cc2nn(Cc3ccc(C(F)(F)F)nc3)c(=O)n21)N1CC(F)C(F)C1` (single isomer, unassigned) [Example 583], the IC50 came to 970 nM.

As to `O=C([C@@H]1CCCc2nn(Cc3cccc(Br)c3)c(=O)n21)N1CC[C@H](F)C1` [Example 213, (5S)-2-(3-Bromobenzyl)-5-{[(3S)-3-fluoropyrrolidin-1-yl]carbonyl}-5,6,7,8-tetrahydro[1,2,4]triazolo[4,3-a]pyridin-3(2H)-one], the IC50 turned out to be 0.77 nM. The same measure for `Cc1ccc(Cn2nc3n(c2=O)[C@H](C(=O)N2CCC(C)(F)C2)CCC3)cc1` (mixture of isomers) [Example 151, (5S)-5-{[(3RS)-3-Fluoro-3-methylpyrrolidin-1-yl]carbonyl}-2-(4-methylbenzyl)-5,6,7,8-tetrahydro[1,2,4]triazolo[4,3-a]pyridin-3(2H)-one]: 0.26 nM; for `Cc1ccc(Cn2nc3n(c2=O)[C@H](C(=O)N2CCC[C@H]2C)CCC3)cc1` [Example 132, (5S)-2-(4-Methylbenzyl)-{[(2R)-2-methylpyrrolidin-1-yl]carbonyl}-5,6,7,8-tetrahydro[1,2,4]triazolo[4,3-a]pyridin-3(2H)-one]: 141 nM; for `Cc1cc(Cn2nc3n(c2=O)C(C(=O)N2CC(F)C2)CCC3)on1` (racemic) [Example 417, (5RS)-5-[(3-Fluoroazetidin-1-yl)carbonyl]-2-[(3-methyl-1,2-oxazol-5-yl)methyl]-5,6,7,8-tetrahydro[1,2,4]triazolo[4,3-a]pyridin-3(2H)-one]: 18 nM. For the compound `O=C(C1CCCc2nn(Cc3cccc(C(F)(F)F)c3)c(=O)n21)N1CC(O)C1` (single isomer, unassigned) [Example 98, (5RS)-5-[(3-Hydroxyazetidin-1-yl)carbonyl]-2-[3-(trifluoromethyl)benzyl]-5,6,7,8-tetrahydro[1,2,4]triazolo[4,3-a]pyridin-3(2H)-one], the IC50 was determined as 257 nM.
